Structures can show the parent of a compound that is named as a salt.
Key:
Kv1.5 = target: T1, Kv1.5 (Homo sapiens, UniProt P22460); assay: Patch-clamp inhibition of cloned ion channel current in transfected HEK cells: Kv1.5; assay type: cell-based; conditions: steady-state current, -80 mV to +60 mV
T1 construct: expressed in transfected cells; host or cells: HEK cells, transient transfection, vector pCDNA3
Protocol: (§1) The relevant cloned ion channels (e.g. cardiac hH1, Kv1.4, Kv1.5, Kv4.2, Kv2.1, HERG etc.) are studied by transient transfection into HEK cells using the mammalian expression vector pCDNA3. Transfections for each channel type are carried out separately to allow individual study of the ion channel of interest. Cells expressing channel protein are detected by cotransfecting cells with the vector pHook-1 (Invitrogen, San Diego, Calif., USA). […] Equal concentrations of individual channel and pHook DNA are incubated with 10× concentration of lipofectAce in Modified Eagle's Medium (MEM, Canadian Life Technologies) and incubated with parent HEK cells plated on 25 mm culture dishes. After 3–4 hours the solution is replaced with a standard culture medium plus 20% fetal bovine serum and 1% antimycotic. Transfected cells are maintained at 37C in an air/5% CO2 incubator in 25 mm Petri dishes plated on glass coverslips for 24–48 hours to allow channel expression to occur. 20 min prior to experiments, cells are treated with beads coated with phOX. After 15 min, excess beads are […] off with cell culture medium and cells which had beads stuck to them are used for electrophysiological tests.
(§2) For whole-cell recording the control pipette filling solution contained (in mM): KCl, 130; EGTA, 5; MgCl2, 1; HEPES, 10; Na2ATP, 4; GTP, 0.1; and is adjusted to pH 7.2 with KOH. The control bath solution contained (in mM): NaCl, 135; KCI, 5; sodium acetate, 2.8; MgCl2, 1; HEPES, 10; CaCl2, 1; and is adjusted to pH 7.4 with NaOH. The test ion channel modulating compound is dissolved to 10 mM stock solutions in water and used at concentrations between 0.5 and 100 μM.
(§3) Coverslips containing cells are removed from the incubator before experiments and placed in a superfusion chamber (volume 250 μl) containing the control bath solution at 22C to 23C. All recordings are made via the variations of the patch-clamp technique, using an Axopatch 200A amplifier (Axon Instruments, CA). Patch electrodes are pulled from thin-walled borosilicate glass (World Precision Instruments; FL) on a horizontal micropipette puller, fire-polished, and filled with appropriate solutions. Electrodes had resistances of […] when filled with control filling solution. Analog capacity compensation is used in all whole cell measurements. In some experiments, leak subtraction is applied to data. Membrane potentials have not been corrected for any junctional potentials that arose between the pipette and bath solution. Data are filtered at 5 to 10 kHz before digitization and stored on a microcomputer for later analysis using the pClamp6 software (Axon Instruments, Foster City, Calif.). Due to the high level of expression of channel cDNA's in HEK cells, there is no need for signal averaging. The average cell capacitance is quite small, and the absence of ionic current at negative membrane potentials allowed faithful leak subtraction of data.
(§4) The concentration-response curves for changes in peak and steady-state current produced by the test compound are computer-fitted to the Hill equation: f=1−1/[1+([…])^n] [1]
(§5) where f is the fractional current (f=Idrug/Icontrol) at drug concentration [D]; IC50 is the concentration producing half-maximal inhibition and n is the Hill coefficient.
(§6) Compounds of the present invention may be evaluated by this method. […] Block is determined from the decrease in peak hH1 Na^+ current, or in steady-state Kv1.5 and integrated Kv4.2 current in the presence of drug. To record Na^+ current, cells are depolarized from the holding potential of −100 mV to a voltage of −30 mV for 10 ms to fully open and inactivate the channel. To record Kv1.5 and Kv4.2 current, cells are depolarized from the holding potential of −80 mV to a voltage of +60 mV for 200 ms to fully open the channel. Currents are recorded in the steady-state at a range of drug concentrations during stimulation every 4 s. […]

HERG = target: T2, HERG (Homo sapiens, UniProt Q12809); assay: Patch-clamp inhibition of cloned ion channel current in transfected HEK cells: HERG; assay type: cell-based; conditions: whole-cell patch clamp
T2 construct: expressed in transfected cells; host or cells: HEK cells, transient transfection, vector pCDNA3
Protocol: as §1, §2, §3, §4, §5, §6

T1 sequence (P22460 whole entry): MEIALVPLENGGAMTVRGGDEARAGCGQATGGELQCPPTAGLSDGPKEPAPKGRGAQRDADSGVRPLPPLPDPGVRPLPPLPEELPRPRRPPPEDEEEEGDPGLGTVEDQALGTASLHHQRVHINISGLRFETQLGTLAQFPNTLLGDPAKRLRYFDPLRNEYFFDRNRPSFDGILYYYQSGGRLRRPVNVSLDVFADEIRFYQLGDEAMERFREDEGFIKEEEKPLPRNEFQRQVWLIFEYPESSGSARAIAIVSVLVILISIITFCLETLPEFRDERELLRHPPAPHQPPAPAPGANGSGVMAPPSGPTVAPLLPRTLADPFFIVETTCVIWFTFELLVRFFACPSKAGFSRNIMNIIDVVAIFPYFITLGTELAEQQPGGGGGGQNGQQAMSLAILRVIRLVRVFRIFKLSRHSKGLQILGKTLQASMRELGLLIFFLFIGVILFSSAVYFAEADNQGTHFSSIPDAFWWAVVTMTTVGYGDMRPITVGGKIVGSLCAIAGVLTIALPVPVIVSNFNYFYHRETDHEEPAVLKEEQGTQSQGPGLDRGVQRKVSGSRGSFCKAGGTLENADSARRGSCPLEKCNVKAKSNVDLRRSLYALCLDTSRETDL
T2 sequence (Q12809 whole entry): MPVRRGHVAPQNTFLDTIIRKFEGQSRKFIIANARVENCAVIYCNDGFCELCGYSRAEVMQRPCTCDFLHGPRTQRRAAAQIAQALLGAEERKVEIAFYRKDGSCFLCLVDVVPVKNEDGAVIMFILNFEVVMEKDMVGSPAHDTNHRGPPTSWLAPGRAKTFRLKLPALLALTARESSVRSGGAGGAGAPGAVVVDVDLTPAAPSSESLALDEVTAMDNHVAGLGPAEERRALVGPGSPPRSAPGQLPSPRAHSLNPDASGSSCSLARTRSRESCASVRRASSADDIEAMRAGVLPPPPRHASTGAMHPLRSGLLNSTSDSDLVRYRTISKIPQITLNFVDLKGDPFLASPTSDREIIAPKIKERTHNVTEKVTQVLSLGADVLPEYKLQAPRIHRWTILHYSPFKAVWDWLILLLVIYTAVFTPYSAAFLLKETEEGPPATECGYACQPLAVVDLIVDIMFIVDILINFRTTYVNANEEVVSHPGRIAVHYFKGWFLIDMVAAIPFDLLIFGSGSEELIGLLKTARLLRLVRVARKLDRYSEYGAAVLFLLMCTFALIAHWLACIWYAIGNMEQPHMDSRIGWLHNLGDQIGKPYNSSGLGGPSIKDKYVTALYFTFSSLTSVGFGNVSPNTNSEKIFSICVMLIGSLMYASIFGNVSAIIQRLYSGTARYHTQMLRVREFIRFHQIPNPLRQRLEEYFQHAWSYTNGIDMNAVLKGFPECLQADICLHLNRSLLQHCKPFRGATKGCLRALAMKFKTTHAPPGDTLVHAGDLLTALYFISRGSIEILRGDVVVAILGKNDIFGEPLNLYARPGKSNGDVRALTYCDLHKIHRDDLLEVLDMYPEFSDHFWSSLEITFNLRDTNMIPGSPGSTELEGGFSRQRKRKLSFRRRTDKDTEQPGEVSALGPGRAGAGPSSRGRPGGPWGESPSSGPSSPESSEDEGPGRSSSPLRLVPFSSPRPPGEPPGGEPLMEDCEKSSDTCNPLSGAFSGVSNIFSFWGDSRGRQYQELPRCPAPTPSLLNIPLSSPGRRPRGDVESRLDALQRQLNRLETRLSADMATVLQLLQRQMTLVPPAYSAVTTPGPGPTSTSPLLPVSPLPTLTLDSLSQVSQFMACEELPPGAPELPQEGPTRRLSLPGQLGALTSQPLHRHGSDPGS

Compound | IC50 (Kv1.5) | IC50 (HERG)
Cc1cn2ccc(C)c(OCCCc3ccc(Cl)cc3Cl)c2n1 [Compound 14, 8-[3-(2,4-DICHLOROPHENYL)PROPOXY]-2,7-DIMETHYLIMIDAZO[1,2-α]PYRIDINE MONOHYDROCHLORIDE] | 700 nM | –
Cc1cn2ccc(C)c(OCC3(c4ccccc4)CC3)c2n1 [Compound 17, 2,7-DIMETHYL-8-[(1-PHENYL-CYCLOPROPYL)METHOXY]IMIDAZO[1,2-α]PYRIDINE MONOHYDROCHLORIDE] | 4000 nM | 1000 nM
Cc1cn2ccc(C)c(OCCCc3ccccc3)c2n1 [Compound 18, 2,7-DIMETHYL-8-[3-PHENYLPROPRXY]IMIDAZO[1,2-α]PYRIDINE MONOHYDROCHLORIDE] | 3000 nM | 1000 nM
Cc1nc2c(OCCCc3ccc(Cl)cc3Cl)cccn2c1Br [Compound 19, 3-BROMO-8-[3-(2,4-DICHLOROPHENYL)PROPOXY]-2-METHYLIMIDAZO[1,2-α]PYRIDINE MONOHYDROCHLORIDE] | 300 nM | 400 nM
CC(C)c1cn2cccc(OCCCc3ccc(Cl)cc3Cl)c2n1 [Compound 20, 8-[3-(2,4-DICHLOROPHENYL)PROPOXY]-2-ISOPROPYLIMIDAZO[1,2-α]PYRIDINE MONOHYDROCHLORIDE] | 200 nM | 100 nM
Cc1nc2c(OCCCc3ccc(Cl)cc3Cl)cccn2c1CO [Compound 21, {8-[3-(2,4-DICHLOROPHENYL)PROPOXY]-2-METHYLIMIDAZO[1,2-α]PYRIDIN-3-yl}METHANOL MMONOHYDROCHLORIDE] | 2000 nM | 60 nM
Cc1nc2c(OCCCc3ccc(Cl)cc3Cl)cccn2c1Cl [Compound 22, 3-CHLORO-8-[3-(2,4-DICHLOROPHENYL)PROPOXY]-2-METHYLI[1,2-α]PYRIDINE MMONOHYDROCHLORIDE] | 400 nM | 1000 nM
FC(F)(F)c1cn2cccc(OCC3(c4ccccc4)CC3)c2n1 [Compound 23, 8-[(1-PHENYLCYCLOPROPYL)METHOXY]-2-(TRIFLUOROMETHYL)IMIDAZO[1,2-α]PYRIDINE MMONOHYDROCHLORIDE] | 3000 nM | 9000 nM
CNCc1c(C)nc2c(OCCCc3ccc(Cl)cc3Cl)cccn12 [Compound 24, 8-[3-(2,4-DICHLOROPHENYL)PROPOXY]-3-[(METHYLAMINO)METHYL]-2-METHYL-IMIDAZO[1,2-α]PYRIDINE DIHYDROCHLORIDE] | 2000 nM | 200 nM
Cc1nc2c(OCCCc3ccc(Cl)cc3Cl)cccn2c1CN(C)C [Compound 25, 8-[3-(2,4-DICHLOROPHENYL)PROPOXY]-3-[(DIMETHYLAMINO)METHYL]-2-METHYLIMIDAZO[1,2-α]PYRIDINE DIHYDROCHLORIDE] | 8000 nM | 100 nM
Cc1nc2c(OCCCc3ccc(Cl)cc3Cl)cccn2c1N [Compound 26, 3-AMINO-8-[3-(2,4-DICHLOROPHENYL)PROPOXY]-2-METHYLIMIDAZO[1,2-α]PYRIDINE DIHYDROCHLORIDE] | 800 nM | 200 nM
Clc1ccc(CCCOc2cccn3c4c(nc23)CCCC4)c(Cl)c1 [Compound 27, 4-[3-(2,4-DICHLOROPHENYL)PROPOXY]-6,7,8,9-TETRAHYDROBENZO[4,5]IMIDAZO-[1,2-α]PYRDINE MMONOHYDROCHLORIDE] | 600 nM | 100 nM
Cc1nc2c(OCC3(c4ccccc4)CC3)cccn2c1Br [Compound 28, 3-BROMO-2-METHYL-8-[(1-PHENYL-CYCLOPROPYL)METHOXY]IMIDAZO[1,2-α]PYRIDINE MMONOHYDROCHLORIDE] | 800 nM | 2000 nM
Clc1ccc(CCCOc2cccn3c4c(nc23)CCC4)c(Cl)c1 [Compound 29, 7-[3-(2,4-DICHLOROPHENYL)PROPOXY]-2,3-DIHYDRO-1H-3b,8-DIAZOCYCLOPENTA[a]indene MMONOHYDROCHLORIDE] | 700 nM | 80 nM
CCOC(=O)c1c(C)nc2c(OCC3(c4ccccc4)CC3)cccn12 [Compound 30, ETHYL 2-METHYL-8-[(1-PHENYL-CYCLOPROPYL)METHOXY]IMIDAZO[1,2-α]PYRIDINE-3-CARBOXYLATE MMONOHYDROCHLORIDE] | 1000 nM | 2000 nM
Cc1nc2c(OCC3(c4ccccc4)CC3)cccn2c1CO [Compound 31, {2-METHYL-8-[(1-PHENYLCYCLOPROPYL)METHOXY]IMIDAZO[1,2-α]PYRIDIN-3-yl}-METHANOL MONOHYDROCHLORIDE] | 4000 nM | 3000 nM
Cc1cn2c(C)ccc(OCCCc3ccccc3)c2n1 [Compound 32, 2,5-DIMETHYL-8-(3-PHENYLPROPOXY)IMIDAZO[1,2-α]PYRIDINE MONOHYDROCHLORIDE] | 4000 nM | 300 nM
Cc1cn2c(C)ccc(OCC3(c4ccccc4)CC3)c2n1 [Compound 33, 2,5-DIMETHYL-8-[(1-PHENYL-CYCLOPROPYL)METHOXY]IMIDAZO[1,2-α]PYRIDINE MONOHYDROCHLORIDE] | 3000 nM | 900 nM
Cc1cn2c(C)ccc(OCCCc3ccc(Cl)cc3Cl)c2n1 [Compound 34, 8-[3-(2,4-DICHLOROPHENYL)PROPOXY]-2,5-DIMETHYLIMIDAZO[1,2-α]PYRIDINE MONOHYDROCHLORIDE] | 1000 nM | 40 nM
Cc1nc2c(OCCCc3ccc(Cl)cc3Cl)cccn2c1C(=O)O [Compound 37, SODIUM 8-[3-(2,4-DICHLOROPHENYL)PROPOXY]-2-METHYLIMIDAZO[1,2-α]PYRIDINE-3-CARBOXYLATE] | 18000 nM | 4000 nM
CC(C)c1cn2cccc(OCC3(c4ccccc4)CC3)c2n1 [Compound 38, 2-ISOPROPYL-8-[(1-PHENYL-CYCLOPROPYL)METHOXY]IMIDAZO[1,2-α]PYRIDINE MONOHYDROCHLORIDE] | 400 nM | 1000 nM
Cc1nc2c(OCC3(c4ccccc4)CC3)cccn2c1Cl [Compound 39, 3-CHLORO-2-METHYL-8-[(1-PHENYL-CYCLOPROPYL)METHOXY]IMIDAZO[1,2-α]PYRIDINE MONOHYDROCHLORIDE] | 700 nM | 3000 nM
Cc1nc2c(OCC3(c4ccccc4)CC3)cccn2c1CN(C)C [Compound 40, 3-(DIMETHYLAMINO)METHYL-2-METHYL-8-[(1-PHENYL-CYCLOPROPYL)METHOXY]-IMIDAZO[1,2-α]PYRIDINE DIHYDROCHLORIDE] | 23000 nM | 1000 nM
CC(=O)Nc1c(C)nc2c(OCCCc3ccc(Cl)cc3Cl)cccn12 [Compound 41, 3-ACETAMIDO-8-[3-(2,4-DICHLOROPHENYL)PROPOXY]-2-METHYLIMIDAZO[1,2-α]PYRIDINE MONOHYDROCHLORIDE] | 5000 nM | 600 nM
Cc1nc2c(OCC3(c4ccccc4)CC3)cccn2c1N [Compound 43, 3-AMINO-2-METHYL-8-[(1-PHENYL-CYCLOPROPYL)METHOXy]IMIDAZO[1,2-α]PYRIDINE MONOHYDROCHLORIDE] | 1600 nM | 700 nM

Source: patent US7105534B2, “Imidazo[1,2-α]pyridine ether compounds as ion channel modulators” (Cardiome Pharma Corp., priority 2000, dated 2006)
